Data: ChEMBL document CHEMBL5550090, “Synthesis and biological evaluation of 1H-pyrrolo[3,2-g]isoquinolines” (Bioorg Med Chem, 2024)

Assays:
[1] = biological target: T1, Serine/threonine-protein kinase haspin (Homo sapiens, UniProt Q8TF76); experiment: Inhibition of recombinant human Haspin kinase domain (470 to 798 residues) expressed in bacteria using histone H3 (1 to 21) peptide as substrate incubated for 30 mins in presence of ATP by ADP-Glo kinase assay
T1 sequence (Q8TF76 whole entry): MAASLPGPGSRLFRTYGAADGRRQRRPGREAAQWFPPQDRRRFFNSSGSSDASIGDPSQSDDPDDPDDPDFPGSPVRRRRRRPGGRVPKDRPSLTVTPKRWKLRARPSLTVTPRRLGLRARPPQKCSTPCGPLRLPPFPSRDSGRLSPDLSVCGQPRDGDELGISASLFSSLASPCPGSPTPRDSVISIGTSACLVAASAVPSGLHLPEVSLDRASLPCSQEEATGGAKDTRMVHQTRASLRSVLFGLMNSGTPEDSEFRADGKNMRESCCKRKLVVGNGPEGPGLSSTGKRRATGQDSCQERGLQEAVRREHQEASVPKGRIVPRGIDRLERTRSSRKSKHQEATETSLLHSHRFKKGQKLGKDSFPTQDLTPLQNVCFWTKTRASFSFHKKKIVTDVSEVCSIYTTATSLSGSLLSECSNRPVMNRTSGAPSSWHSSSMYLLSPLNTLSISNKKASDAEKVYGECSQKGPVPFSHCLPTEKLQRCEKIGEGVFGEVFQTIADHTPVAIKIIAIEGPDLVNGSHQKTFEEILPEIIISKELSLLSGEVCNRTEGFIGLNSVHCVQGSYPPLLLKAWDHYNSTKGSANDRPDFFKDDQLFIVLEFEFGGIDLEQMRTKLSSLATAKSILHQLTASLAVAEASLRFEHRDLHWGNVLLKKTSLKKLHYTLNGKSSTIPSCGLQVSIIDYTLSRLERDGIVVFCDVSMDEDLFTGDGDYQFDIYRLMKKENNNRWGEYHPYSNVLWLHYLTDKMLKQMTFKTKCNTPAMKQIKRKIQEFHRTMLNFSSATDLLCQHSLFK

[2] = biological target: Dual specificity protein kinase CLK1 (Mus musculus) (UniProt P22518); experiment: Inhibition of recombinant mouse CLK1 expressed in bacteria assessed as enzyme residual activity using GRSRSRSRSRSR as substrate at 10 uM incubated for 30 mins in presence of ATP by ADP-Glo kinase assay
[3] = biological target: Dual specificity protein kinase CLK1 (Mus musculus) (UniProt P22518); experiment: Inhibition of recombinant mouse CLK1 expressed in bacteria assessed as enzyme residual activity using GRSRSRSRSRSR as substrate at 1 uM incubated for 30 mins in presence of ATP by ADP-Glo kinase assay
[4] = biological target: Dual specificity protein kinase CLK1 (Mus musculus, UniProt P22518); experiment: Inhibition of recombinant mouse CLK1 expressed in bacteria using GRSRSRSRSRSR as substrate incubated for 30 mins in presence of ATP by ADP-Glo kinase assay
[5] = biological target: Dual specificity tyrosine-phosphorylation-regulated kinase 1A (Rattus norvegicus) (UniProt Q63470); experiment: Inhibition of recombinant rat DYRK1A kinase domain (1 to 499 residues) expressed in bacteria assessed as enzyme residual activity using KKISGRLSPIMTEQ as substrate at 10 uM incubated for 30 mins in presence of ATP by ADP-Glo kinase assay
[6] = biological target: Dual specificity tyrosine-phosphorylation-regulated kinase 1A (Rattus norvegicus) (UniProt Q63470); experiment: Inhibition of recombinant rat DYRK1A kinase domain (1 to 499 residues) expressed in bacteria assessed as enzyme residual activity using KKISGRLSPIMTEQ as substrate at 1 uM incubated for 30 mins in presence of ATP by ADP-Glo kinase assay
[7] = biological target: Dual specificity tyrosine-phosphorylation-regulated kinase 1A (Rattus norvegicus, UniProt Q63470); experiment: Inhibition of recombinant rat DYRK1A kinase domain (1 to 499 residues) expressed in bacteria using KKISGRLSPIMTEQ as substrate incubated for 30 mins in presence of ATP by ADP-Glo kinase assay
[8] = biological target: T2, CDK9/cyclin T1 (Homo sapiens) (UniProt O60563+P50750); experiment: Inhibition of human recombinant CDK9/cyclin T expressed in baculovirus-infected Sf9 cells assessed as enzyme residual activity using YSPTSPSYSPTSPSYSPTSPSKKKK as substrate at 10 uM incubated for 30 mins in presence of ATP by ADP-Glo kinase assay
[9] = biological target: T2, CDK9/cyclin T1 (Homo sapiens); experiment: Inhibition of human recombinant CDK9/cyclin T expressed in baculovirus-infected Sf9 cells assessed as enzyme residual activity using YSPTSPSYSPTSPSYSPTSPSKKKK as substrate at 1 uM incubated for 30 mins in presence of ATP by ADP-Glo kinase assay
[10] = biological target: Glycogen synthase kinase-3 beta (Homo sapiens) (UniProt P49841); experiment: Inhibition of human recombinant GSK-3 beta expressed in baculovirus-infected Sf9 cells assessed as enzyme residual activity using YRRAAVPPSPSLSRHSSPHQSpEDEEE as substrate at 10 uM incubated for 30 mins in presence of ATP by ADP-Glo kinase assay
[11] = biological target: Glycogen synthase kinase-3 beta (Homo sapiens) (UniProt P49841); experiment: Inhibition of human recombinant GSK-3 beta expressed in baculovirus-infected Sf9 cells assessed as enzyme residual activity using YRRAAVPPSPSLSRHSSPHQSpEDEEE as substrate at 1 uM incubated for 30 mins in presence of ATP by ADP-Glo kinase assay
[12] = biological target: Casein kinase I isoform epsilon (Homo sapiens) (UniProt P49674); experiment: Inhibition of human recombinant CK1 epsilon expressed in baculovirus-infected Sf9 cells assessed as enzyme residual activity using RRKHAAIGSpAYSITA as substrate at 10 uM incubated for 30 mins in presence of ATP by ADP-Glo kinase assay
[13] = biological target: Casein kinase I isoform epsilon (Homo sapiens) (UniProt P49674); experiment: Inhibition of human recombinant CK1 epsilon expressed in baculovirus-infected Sf9 cells assessed as enzyme residual activity using RRKHAAIGSpAYSITA as substrate at 1 uM incubated for 30 mins in presence of ATP by ADP-Glo kinase assay
[14] = biological target: T3, Cyclin-dependent kinase 5/CDK5 activator 1 (Homo sapiens) (UniProt Q00535+Q15078); experiment: Inhibition of human recombinant CDK5/p25 expressed in bacteria assessed as enzyme residual activity using histone H1 as substrate at 10 uM incubated for 30 mins in presence of ATP by ADP-Glo kinase assay
[15] = biological target: T3, Cyclin-dependent kinase 5/CDK5 activator 1 (Homo sapiens); experiment: Inhibition of human recombinant CDK5/p25 expressed in bacteria assessed as enzyme residual activity using histone H1 as substrate at 1 uM incubated for 30 mins in presence of ATP by ADP-Glo kinase assay
[16] = biological target: T4, Serine/threonine-protein kinase pim-1 (Homo sapiens, UniProt P11309); experiment: Inhibition of human recombinant PIM-1 expressed in bacteria assessed as enzyme residual activity using histone H1 as substrate at 10 uM incubated for 30 mins in presence of ATP by ADP-Glo kinase assay
Target sequence in this assay (P11309 whole entry, looked up): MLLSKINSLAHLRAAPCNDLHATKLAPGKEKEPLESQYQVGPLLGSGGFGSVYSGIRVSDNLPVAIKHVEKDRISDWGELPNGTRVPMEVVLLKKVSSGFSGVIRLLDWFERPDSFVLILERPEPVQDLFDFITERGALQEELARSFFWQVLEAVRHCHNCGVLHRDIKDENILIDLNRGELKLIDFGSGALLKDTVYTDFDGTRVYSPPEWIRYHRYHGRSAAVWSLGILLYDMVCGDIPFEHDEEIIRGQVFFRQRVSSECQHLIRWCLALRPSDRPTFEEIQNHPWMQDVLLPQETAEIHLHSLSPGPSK

[17] = biological target: T4, Serine/threonine-protein kinase pim-1; experiment: Inhibition of human recombinant PIM-1 expressed in bacteria assessed as enzyme residual activity using histone H1 as substrate at 1 uM incubated for 30 mins in presence of ATP by ADP-Glo kinase assay
Target sequence in this assay (P11309 whole entry, looked up): as above

[18] = biological target: T4, Serine/threonine-protein kinase pim-1; experiment: Inhibition of human recombinant PIM-1 expressed in bacteria using histone H1 as substrate incubated for 30 mins in presence of ATP by ADP-Glo kinase assay
Target sequence in this assay (P11309 whole entry): as the sequence (P11309 whole entry, looked up) above

[19] = Selectivity index, ratio of IC50 for recombinant mouse CLK1 expressed in bacteria to IC50 for recombinant human Haspin kinase domain (470 to 798 residues) expressed in bacteria
TERT-RPE1 = experiment: cells; conditions: Homo sapiens, RPE-1, 48 h
Description: Cytotoxicity against human TERT-RPE1 cells assessed as reduction in cell viability incubated for 48 hrs by MTS assay

HBL-100 = experiment: cells; conditions: Homo sapiens, HBL-100, 48 h
Description: Antiproliferative activity against human HBL-100 cells assessed as reduction in cell viability incubated for 48 hrs by MTS assay

HCT-116 = experiment: cells; conditions: Homo sapiens, HCT-116, 48 h
Description: Antiproliferative activity against human HCT-116 cells assessed as reduction in cell viability incubated for 48 hrs by MTS assay

SH-SY5Y = experiment: cells; conditions: Homo sapiens, 48 h
Description: Antiproliferative activity against human SH-SY5Y cells assessed as reduction in cell viability incubated for 48 hrs by MTS assay

U2OS = experiment: cells; conditions: Homo sapiens, 48 h
Description: Antiproliferative activity against human U2OS cells assessed as reduction in cell viability incubated for 48 hrs by MTS assay

CDK9/cyclin T1 = CDK9/cyclin T1 (Homo sapiens, UniProt P50750); experiment: Inhibition of human recombinant CDK9/cyclin T expressed in baculovirus-infected Sf9 cells using YSPTSPSYSPTSPSYSPTSPSKKKK as substrate incubated for 30 mins in presence of ATP by ADP-Glo kinase assay
Homo sapiens = species on record: Homo sapiens; experiment: Selectivity index, ratio of IC50 for human recombinant CDK9/cyclin T expressed in baculovirus-infected Sf9 cells to IC50 for recombinant human Haspin kinase domain (470 to 798 residues) expressed in bacteria

Chain of CDK9/cyclin T1 (O60563 whole entry, the tested form may be a part): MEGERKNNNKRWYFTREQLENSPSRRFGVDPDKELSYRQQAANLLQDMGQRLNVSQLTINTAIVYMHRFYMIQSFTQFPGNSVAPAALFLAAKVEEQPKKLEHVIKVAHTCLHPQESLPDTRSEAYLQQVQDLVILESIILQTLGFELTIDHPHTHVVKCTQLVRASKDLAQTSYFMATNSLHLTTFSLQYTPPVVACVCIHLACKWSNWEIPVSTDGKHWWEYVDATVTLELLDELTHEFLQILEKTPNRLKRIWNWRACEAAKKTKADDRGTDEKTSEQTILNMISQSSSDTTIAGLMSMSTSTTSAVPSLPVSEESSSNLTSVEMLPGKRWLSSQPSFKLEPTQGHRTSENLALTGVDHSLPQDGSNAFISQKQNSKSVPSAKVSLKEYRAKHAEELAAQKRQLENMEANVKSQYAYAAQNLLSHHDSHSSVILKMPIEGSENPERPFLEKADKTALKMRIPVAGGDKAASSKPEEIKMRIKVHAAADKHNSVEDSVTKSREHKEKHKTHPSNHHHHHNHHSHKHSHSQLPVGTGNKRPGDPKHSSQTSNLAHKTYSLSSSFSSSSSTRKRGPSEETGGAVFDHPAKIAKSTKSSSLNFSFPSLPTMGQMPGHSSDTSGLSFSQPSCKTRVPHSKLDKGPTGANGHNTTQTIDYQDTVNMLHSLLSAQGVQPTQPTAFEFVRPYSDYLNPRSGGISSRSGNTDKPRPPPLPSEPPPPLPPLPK
Chain of CDK9/cyclin T1 (P50750 whole entry, the tested form may be a part): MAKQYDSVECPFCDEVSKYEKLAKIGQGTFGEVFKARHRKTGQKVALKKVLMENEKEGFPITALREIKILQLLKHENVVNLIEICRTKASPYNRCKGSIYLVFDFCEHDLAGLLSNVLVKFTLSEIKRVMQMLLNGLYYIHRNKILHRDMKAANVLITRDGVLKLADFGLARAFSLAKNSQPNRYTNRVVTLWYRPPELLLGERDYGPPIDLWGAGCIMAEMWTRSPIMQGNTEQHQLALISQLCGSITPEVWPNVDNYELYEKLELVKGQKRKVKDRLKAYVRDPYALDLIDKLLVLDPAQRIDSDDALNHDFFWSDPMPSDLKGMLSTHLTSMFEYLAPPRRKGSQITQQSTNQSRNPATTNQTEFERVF
Chain of Dual specificity protein kinase CLK1 (P22518 whole entry, the tested form may be a part): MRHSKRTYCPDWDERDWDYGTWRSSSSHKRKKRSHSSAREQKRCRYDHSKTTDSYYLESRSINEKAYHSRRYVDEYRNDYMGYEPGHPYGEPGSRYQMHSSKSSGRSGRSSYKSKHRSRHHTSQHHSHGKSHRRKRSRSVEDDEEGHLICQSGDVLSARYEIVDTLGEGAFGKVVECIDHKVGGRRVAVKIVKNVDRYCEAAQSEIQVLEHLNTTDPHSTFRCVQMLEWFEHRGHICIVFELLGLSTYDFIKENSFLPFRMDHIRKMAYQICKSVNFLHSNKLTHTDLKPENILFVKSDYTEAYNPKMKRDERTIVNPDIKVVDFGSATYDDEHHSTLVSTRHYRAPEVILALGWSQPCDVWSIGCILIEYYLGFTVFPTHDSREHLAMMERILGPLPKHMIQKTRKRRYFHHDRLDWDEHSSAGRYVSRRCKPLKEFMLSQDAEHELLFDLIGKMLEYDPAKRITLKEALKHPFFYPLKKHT
Chain of Dual specificity protein kinase CLK1 (Mus musculus) (P22518 whole entry, looked up): as the sequence (P22518 whole entry, the tested form may be a part) above
Chain of Casein kinase I isoform epsilon (Homo sapiens) (P49674 whole entry, looked up, canonical isoform): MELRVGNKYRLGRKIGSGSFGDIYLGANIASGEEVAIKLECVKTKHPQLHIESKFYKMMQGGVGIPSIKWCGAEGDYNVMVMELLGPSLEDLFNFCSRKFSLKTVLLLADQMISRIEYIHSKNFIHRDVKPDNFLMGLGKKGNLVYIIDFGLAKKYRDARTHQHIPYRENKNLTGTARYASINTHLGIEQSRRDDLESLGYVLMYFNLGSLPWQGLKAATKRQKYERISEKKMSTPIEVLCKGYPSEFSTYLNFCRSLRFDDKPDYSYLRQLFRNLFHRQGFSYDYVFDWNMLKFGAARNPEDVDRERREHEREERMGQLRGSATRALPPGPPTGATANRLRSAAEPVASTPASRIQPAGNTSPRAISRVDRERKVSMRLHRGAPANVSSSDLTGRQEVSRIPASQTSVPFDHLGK
T3 sequence (Q00535 whole entry): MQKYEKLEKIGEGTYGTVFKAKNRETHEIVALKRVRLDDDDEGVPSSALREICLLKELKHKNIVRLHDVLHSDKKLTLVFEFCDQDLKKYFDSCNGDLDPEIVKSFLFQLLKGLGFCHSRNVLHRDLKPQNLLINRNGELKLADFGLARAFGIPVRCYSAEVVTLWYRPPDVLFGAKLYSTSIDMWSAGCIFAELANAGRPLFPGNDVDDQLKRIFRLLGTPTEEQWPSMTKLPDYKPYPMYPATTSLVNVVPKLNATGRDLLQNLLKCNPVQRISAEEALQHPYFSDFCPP
T3 sequence (Q15078 99-307 partner limits assumed): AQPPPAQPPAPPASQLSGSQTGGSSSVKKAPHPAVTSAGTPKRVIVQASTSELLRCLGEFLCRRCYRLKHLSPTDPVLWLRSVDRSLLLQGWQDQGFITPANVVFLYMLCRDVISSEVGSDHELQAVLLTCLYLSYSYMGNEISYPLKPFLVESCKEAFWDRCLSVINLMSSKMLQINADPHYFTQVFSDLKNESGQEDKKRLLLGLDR
Chain of Glycogen synthase kinase-3 beta (Homo sapiens) (P49841 whole entry, looked up, canonical isoform): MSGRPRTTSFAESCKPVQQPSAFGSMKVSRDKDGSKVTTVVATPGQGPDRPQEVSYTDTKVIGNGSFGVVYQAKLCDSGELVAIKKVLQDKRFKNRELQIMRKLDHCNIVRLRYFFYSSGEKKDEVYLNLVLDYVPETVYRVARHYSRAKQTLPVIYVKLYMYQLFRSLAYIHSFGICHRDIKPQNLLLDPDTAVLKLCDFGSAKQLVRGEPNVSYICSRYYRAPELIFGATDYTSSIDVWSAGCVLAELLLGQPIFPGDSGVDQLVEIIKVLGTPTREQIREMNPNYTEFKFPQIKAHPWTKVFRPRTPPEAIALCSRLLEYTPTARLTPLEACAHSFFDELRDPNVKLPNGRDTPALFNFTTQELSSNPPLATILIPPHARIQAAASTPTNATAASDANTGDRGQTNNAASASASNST

Compound | IC50 [1] [µM] | Activity [2] [%] | Activity [3] [%] | IC50 [4] [µM] | Activity [5] [%] | Activity [6] [%] | IC50 [7] [µM] | Activity [8] [%] | Activity [9] [%] | Activity [10] [%] | Activity [11] [%] | Activity [12] [%] | Activity [13] [%] | Activity [14] [%] | Activity [15] [%] | Activity [16] [%] | Activity [17] [%] | IC50 [18] [µM] | Ratio IC50 [19] | IC50 (CDK9/cyclin T1) [µM] | further results
Nc1nccc(-c2c[nH]c3cc4cnccc4cc23)n1 | 0.122 | 5 | 16 | 0.205 | 0 | 25 | 0.56 | 16 | 56 | 35 | 76 | 10 | 46 | 21 | 79 | 4 | 20 | 0.225 | 1.7 |  | 
Ic1c[nH]c2cc3cnccc3cc12 | 0.114 | 27 | 69 |  | 16 | 50 | 0.564 | 35 | 62 | 74 | 77 | 27 | 69 | 100 |  | 23 | 50 | 0.675 |  |  | EC50 (TERT-RPE1): > 50 µM; EC50 (HBL-100): > 50 µM; EC50 (HCT-116): > 50 µM; EC50 (SH-SY5Y): > 50 µM; EC50 (U2OS): > 50 µM
CC(=O)c1c[nH]c2cc3cnccc3cc12 | 0.157 | 10 | 21 | 0.265 | 0 | 25 | 0.86 | 20 | 34 | 27 | 69 | 62 | 98 | 13 | 31 | 27 | 80 |  | 1.7 |  | 
Brc1c[nH]c2cc3cnccc3cc12 | 0.15 | 32 | 72 |  | 11 | 36 | 0.916 | 27 | 39 | 62 | 89 | 77 | 100 | 48 | 100 | 24 | 48 | 0.804 |  | 0.999 | EC50 (TERT-RPE1): > 50 µM; EC50 (HBL-100): > 50 µM; EC50 (HCT-116): > 50 µM; EC50 (SH-SY5Y): > 50 µM; EC50 (U2OS): > 50 µM
O=Cc1c[nH]c2cc3cnccc3cc12 | 0.158 | 26 | 53 | 0.182 | 7 | 21 | 0.495 | 7 | 7 | 23 | 55 | 34 | 80 | 57 | 84 | 33 | 64 |  |  | 0.151 | Ratio IC50 (Homo sapiens): 0.96
N#Cc1c[nH]c2cc3cnccc3cc12 | 0.075 | 0 | 19 | 0.36 | 5 | 38 | 0.182 | 6 | 34 | 26 | 59 | 47 | 92 | 34 | 69 | 95 | 100 |  |  | 0.178 | Ratio IC50 (Homo sapiens): 2.4
ON=Cc1c[nH]c2cc3cnccc3cc12 | 0.13 |  | 15 | 0.139 | 1 | 9 | 0.29 | 2 | 13 | 27 | 80 | 46 | 89 | 32 | 51 | 11 | 43 |  | 1.1 | 0.222 | 
